Source: PMC8629796, “Inhibition of the hERG potassium channel by phenanthrene: a polycyclic aromatic hydrocarbon pollutant” (Cellular and Molecular Life Sciences: CMLS, 2021)

Columns and labels:
[1] = molecular target: T1, hERG (hERG1a, Kv11.1) potassium channel (Homo sapiens, UniProt Q12809); assay: whole-cell patch clamp, tail current inhibition; format: cell-based
T1 construct: gene KCNH2; WT hERG1a stably expressed in HEK293 cells

[2] = molecular target: T2, hERG (hERG1a, Kv11.1) potassium channel (Homo sapiens, UniProt Q12809, F656T); assay: whole-cell patch clamp, tail current block by […]; format: cell-based
T2 construct: gene KCNH2; hERG1a F656T transiently expressed in HEK293 cells

[3] = molecular target: T3, hERG (hERG1a, Kv11.1) potassium channel (Homo sapiens, UniProt Q12809, Y652A); assay: whole-cell patch clamp, tail current inhibition; format: cell-based
T3 construct: gene KCNH2; hERG1a Y652A transiently expressed in HEK293 cells

[4] = molecular target: T4, hERG (hERG1a, Kv11.1) potassium channel (Homo sapiens, UniProt Q12809, F656V)
T4 construct: gene KCNH2

zebrafish ERG (zERG) = molecular target: T5, zebrafish ERG (zERG) (Danio rerio, UniProt A0A8M1PIE0); assay: whole-cell patch clamp, current inhibition; format: cell-based
T5 construct: gene kcnh6a
T5 sequence (A0A8M1PIE0 1-1186): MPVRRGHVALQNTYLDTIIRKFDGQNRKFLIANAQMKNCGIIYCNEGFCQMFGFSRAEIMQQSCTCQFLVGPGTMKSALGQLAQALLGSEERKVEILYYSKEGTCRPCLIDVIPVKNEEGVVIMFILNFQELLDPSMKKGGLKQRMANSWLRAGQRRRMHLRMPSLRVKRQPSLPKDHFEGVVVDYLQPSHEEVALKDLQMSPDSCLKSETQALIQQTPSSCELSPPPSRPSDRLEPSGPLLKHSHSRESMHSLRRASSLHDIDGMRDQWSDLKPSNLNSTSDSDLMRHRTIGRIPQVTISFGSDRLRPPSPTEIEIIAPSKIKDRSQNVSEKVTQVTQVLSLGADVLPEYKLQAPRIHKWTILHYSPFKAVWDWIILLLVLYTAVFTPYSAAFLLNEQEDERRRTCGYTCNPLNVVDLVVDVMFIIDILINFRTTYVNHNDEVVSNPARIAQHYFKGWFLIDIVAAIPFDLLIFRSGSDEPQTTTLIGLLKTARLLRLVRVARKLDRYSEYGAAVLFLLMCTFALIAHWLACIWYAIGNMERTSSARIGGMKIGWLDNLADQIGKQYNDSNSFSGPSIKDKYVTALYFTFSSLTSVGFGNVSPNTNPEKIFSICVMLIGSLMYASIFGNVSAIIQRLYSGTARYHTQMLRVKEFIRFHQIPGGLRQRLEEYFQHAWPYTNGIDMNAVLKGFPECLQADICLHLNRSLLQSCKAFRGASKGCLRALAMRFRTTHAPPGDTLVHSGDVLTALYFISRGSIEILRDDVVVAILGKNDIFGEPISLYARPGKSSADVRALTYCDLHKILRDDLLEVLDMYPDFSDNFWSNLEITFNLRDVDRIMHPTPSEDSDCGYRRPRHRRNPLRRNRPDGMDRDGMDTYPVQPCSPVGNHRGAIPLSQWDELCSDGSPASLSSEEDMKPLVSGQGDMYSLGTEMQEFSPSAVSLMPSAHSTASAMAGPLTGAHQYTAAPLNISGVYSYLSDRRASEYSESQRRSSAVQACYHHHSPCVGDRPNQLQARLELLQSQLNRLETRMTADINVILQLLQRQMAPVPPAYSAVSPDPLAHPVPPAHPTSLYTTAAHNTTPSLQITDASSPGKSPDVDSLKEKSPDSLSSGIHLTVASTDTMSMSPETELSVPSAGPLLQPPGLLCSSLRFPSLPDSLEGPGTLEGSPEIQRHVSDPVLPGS

T2 sequence (Q12809 whole entry F656T): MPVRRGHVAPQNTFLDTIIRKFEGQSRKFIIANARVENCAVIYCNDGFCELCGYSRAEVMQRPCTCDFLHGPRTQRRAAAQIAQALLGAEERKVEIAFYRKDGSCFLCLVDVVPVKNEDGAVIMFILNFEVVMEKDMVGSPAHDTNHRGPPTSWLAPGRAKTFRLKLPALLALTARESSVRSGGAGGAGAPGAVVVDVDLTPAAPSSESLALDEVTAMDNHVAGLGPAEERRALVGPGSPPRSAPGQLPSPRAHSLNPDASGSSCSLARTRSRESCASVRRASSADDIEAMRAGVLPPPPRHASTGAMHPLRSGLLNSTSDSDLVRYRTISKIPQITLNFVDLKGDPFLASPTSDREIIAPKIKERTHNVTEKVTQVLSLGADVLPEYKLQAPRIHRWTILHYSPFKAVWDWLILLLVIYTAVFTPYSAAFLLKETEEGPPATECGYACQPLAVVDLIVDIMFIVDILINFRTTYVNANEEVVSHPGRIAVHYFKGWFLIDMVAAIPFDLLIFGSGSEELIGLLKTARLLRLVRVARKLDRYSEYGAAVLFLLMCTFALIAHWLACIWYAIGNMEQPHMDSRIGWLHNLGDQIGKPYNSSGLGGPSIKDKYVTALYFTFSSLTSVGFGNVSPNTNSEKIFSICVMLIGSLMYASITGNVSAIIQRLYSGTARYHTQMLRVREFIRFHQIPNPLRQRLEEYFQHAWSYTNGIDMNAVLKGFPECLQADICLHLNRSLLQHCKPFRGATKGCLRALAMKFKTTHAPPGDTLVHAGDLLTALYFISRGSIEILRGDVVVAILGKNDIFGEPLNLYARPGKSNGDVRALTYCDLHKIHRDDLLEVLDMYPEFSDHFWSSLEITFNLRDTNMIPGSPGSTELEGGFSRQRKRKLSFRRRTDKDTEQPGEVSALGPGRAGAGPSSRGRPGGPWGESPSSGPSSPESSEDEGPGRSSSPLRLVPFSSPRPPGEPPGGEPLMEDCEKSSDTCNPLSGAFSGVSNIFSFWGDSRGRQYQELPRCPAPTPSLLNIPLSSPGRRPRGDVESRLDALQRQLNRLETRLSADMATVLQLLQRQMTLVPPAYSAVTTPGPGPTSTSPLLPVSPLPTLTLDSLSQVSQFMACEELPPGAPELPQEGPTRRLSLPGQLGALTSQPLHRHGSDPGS
T1 sequence (Q12809 whole entry): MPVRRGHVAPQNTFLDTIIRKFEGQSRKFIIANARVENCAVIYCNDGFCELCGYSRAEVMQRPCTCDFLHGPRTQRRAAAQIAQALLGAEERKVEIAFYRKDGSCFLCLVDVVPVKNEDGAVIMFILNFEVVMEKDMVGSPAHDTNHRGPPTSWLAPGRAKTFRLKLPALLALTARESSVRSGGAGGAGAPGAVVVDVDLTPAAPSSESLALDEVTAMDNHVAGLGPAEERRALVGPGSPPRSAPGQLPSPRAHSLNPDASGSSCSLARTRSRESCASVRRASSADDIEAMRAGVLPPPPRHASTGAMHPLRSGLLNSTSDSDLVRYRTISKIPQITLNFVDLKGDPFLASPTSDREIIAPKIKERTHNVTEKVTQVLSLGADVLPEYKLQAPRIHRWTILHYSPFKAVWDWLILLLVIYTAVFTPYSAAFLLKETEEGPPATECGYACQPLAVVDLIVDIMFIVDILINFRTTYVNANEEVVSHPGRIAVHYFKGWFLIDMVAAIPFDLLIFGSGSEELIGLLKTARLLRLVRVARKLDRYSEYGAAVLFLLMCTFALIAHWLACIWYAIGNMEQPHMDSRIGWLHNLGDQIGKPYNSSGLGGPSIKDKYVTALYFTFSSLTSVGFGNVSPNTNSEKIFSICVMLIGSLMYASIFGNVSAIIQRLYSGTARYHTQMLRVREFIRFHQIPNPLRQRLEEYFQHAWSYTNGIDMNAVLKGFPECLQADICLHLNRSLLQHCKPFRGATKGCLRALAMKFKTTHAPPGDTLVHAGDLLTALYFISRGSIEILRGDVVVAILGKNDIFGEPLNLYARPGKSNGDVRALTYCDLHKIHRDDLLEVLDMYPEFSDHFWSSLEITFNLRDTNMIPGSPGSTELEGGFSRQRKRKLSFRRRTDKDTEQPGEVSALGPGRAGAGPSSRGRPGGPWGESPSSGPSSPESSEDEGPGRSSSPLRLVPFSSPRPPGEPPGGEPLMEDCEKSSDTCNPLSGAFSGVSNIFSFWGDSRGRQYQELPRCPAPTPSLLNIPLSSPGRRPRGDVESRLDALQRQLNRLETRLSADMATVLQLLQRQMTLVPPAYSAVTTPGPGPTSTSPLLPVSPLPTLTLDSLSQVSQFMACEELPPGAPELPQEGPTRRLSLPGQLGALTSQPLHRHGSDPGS
T3 sequence (Q12809 whole entry Y652A): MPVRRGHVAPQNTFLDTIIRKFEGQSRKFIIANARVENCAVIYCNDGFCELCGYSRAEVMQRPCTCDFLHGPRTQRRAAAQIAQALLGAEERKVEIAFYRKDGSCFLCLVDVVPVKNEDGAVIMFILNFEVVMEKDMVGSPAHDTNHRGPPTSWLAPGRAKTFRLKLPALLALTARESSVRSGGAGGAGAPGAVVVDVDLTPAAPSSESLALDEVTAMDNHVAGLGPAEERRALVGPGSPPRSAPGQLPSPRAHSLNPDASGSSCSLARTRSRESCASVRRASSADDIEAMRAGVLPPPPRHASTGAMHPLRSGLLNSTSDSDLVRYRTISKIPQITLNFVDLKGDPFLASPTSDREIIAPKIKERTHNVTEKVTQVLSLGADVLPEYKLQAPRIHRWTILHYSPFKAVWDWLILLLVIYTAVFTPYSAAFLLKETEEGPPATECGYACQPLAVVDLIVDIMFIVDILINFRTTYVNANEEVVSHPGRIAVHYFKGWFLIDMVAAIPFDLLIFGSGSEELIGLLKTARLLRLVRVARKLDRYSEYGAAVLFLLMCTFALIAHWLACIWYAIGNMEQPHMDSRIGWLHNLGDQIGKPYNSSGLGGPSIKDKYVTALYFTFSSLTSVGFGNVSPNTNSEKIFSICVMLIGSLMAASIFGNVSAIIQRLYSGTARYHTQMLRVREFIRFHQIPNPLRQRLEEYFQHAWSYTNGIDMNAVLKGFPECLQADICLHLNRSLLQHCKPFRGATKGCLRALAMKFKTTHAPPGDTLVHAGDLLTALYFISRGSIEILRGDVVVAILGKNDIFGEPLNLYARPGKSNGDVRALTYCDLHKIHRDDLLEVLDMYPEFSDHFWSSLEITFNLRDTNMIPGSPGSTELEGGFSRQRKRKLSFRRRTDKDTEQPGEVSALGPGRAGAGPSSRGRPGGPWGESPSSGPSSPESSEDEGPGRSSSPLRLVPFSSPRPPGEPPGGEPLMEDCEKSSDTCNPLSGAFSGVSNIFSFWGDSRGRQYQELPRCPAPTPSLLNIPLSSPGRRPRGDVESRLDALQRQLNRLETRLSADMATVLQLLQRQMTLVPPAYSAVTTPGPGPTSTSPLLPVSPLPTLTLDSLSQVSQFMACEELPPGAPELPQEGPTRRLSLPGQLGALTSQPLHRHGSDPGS

With `c1ccc2c(c1)ccc1ccccc12` [phenanthrene] the IC50 [1] was 17.6 ± 1.7 µM, the “whole-cell patch clamp, tail current block by 30 μM” value [2] was “this effect was not statistically significantly different from block of WT IhERG” and the IC50 [3] was 460 ± 10 nM. For the same molecule, the “whole-cell patch clamp, tail current block by 30 μM” value [4] was “also did not impair the inhibitory effect of phenanthrene, showing a trend towards increased block” and the IC50 (zebrafish ERG (zERG)) was 8.77 ± 0.93 µM.
